# Source: ChEMBL document CHEMBL2311474, “Chiral 6,7-bis(hydroxymethyl)-1H,3H-pyrrolo[1,2-c]thiazoles with anti-breast cancer properties” (Eur J Med Chem, 2013)
# pIC50: −log10 of the molar value.
# Columns and labels:
# [1] = Cytotoxicity against human HFF1 cells after 96 hrs by MTT assay; type: cell-based; details: HFF-1, 96 h
# MCF7 [2] = experiment: Cytotoxicity against human MCF7 cells after 48 hrs by MTT assay; type: functional, cell-based; details: MCF7, 48 h
# MCF7 [3] = experiment: Cytotoxicity against human MCF7 cells after 96 hrs by MTT assay; type: functional, cell-based; details: MCF7, 96 h
# MCF7 [4] = experiment: Cytotoxicity against human MCF7 cells after 72 hrs by MTT assay; type: functional, cell-based; details: MCF7, 72 h
# MCF7 [5] = experiment: Cytotoxicity against human MCF7 cells after 24 hrs by MTT assay; type: functional, cell-based; details: MCF7, 24 h
SMILES,pIC50 [1],pIC50 (MCF7 [2]),pIC50 (MCF7 [3]),pIC50 (MCF7 [4]),pIC50 (MCF7 [5])
Cc1c(CO)cc2n1[C@@H](c1ccccc1)SC2,3.81,,,,
Cc1cc(CO)c2n1[C@@H](c1ccccc1)SC2,3.99,,,,
Cc1c(COC(=O)NCc2ccccc2)cc2n1[C@@H](c1ccccc1)SC2,4.32,,,,
OCc1c(CO)c(-c2ccccc2)n2c1CS[C@@H]2c1ccccc1,,4.21,4.15,4.28,4.03
OCc1c(CO)c(-c2ccc(F)cc2)n2c1CS[C@@H]2c1ccccc1,,4.33,4.58,4.35,4.25
Cc1c(CO)c(CO)c2n1[C@H](c1ccccc1)SC2,,6.27,6.52,6.27,5.76
Cc1c(CO)cc2n1CSC2,,3.81,4.08,3.72,3.73
Cc1cc(CO)c2n1CSC2,,4.26,4.35,4.39,4.12
Cc1c(CO)c(CO)c2n1CSC2,,4.42,4.67,4.65,4.42
COc1cc([C@H]2SCc3c(CO)c(CO)c(C)n32)cc(OC)c1OC,,3.90,4.22,4.26,< 3.70
OCc1cn2c(c1CO)CS[C@@H]2c1ccccc1,,4.71,,,4.15
OCc1cn2c(c1CO)CS[C@@H]2c1cccnc1,,3.89,4.51,4.21,< 3.70
